Test [1] relates to EIN3 protein. Nature of the test: EIN3 protein immunoblot, etiolated wild-type seedlings. Type of test: in vivo, Arabidopsis. On the procedure: With the exception of eto2 in Landsberg erecta (Ler) background, the ecotype Columbia (Col-0) was the parent strain for all mutant and transgenic lines described herein. Arabidopsis seeds were surface-sterilized and plated on the surface of MS medium (4.3 g MS salts, 10 g sucrose, pH 5.7, 8 g bactoagar per liter). After 3-4 days in the light at 4° C., the plates were wrapped in foil and kept in a 24° C. incubator before the phenotypes of seedlings were analyzed. For propagation, seedlings from plates were transferred to soil (Promix-HP) and grown to maturity at 22° C. under a 16 hr light/8 hr dark cycle.
(§1) Ethylene treatment of Arabidopsis seedlings grown on plates was performed in containers by flowing through hydrocarbon-free air supplemented with 10 ppm (parts per million) ethylene or were treated with hydrocarbon-free air alone (Kieber et al., Cell 72, 427-441, 1993). For drug treatments, Arabidopsis suspension cell cultures were treated with MG132 (50 μM), MG115 (50 μM), Pefabloc SC (100 μM) or DMSO (0.1%) for a time course study. Alternatively, etiolated seedlings were germinated for three days on a disc of Whatman paper resting on the surface of MS medium. MG132 (50 μM), MG115 (50 μM), Pefabloc SC (100 μM) or DMSO (0.1%) was added to the paper discs for 4 hr. Cycloheximide (100 μM) was added to the paper discs and ethylene or air was applied for different amounts of time.
(A western blot detects proteins with antibodies after separation by electrophoresis.)

In test [2] the test system is EIN3-GFP fusion protein. Nature of the test: EIN3-GFP nuclear accumulation, fluorescence microscopy of transgenic seedlings. Type of test: in vivo, Arabidopsis. The note with it: for abundance of EIN3-GFP in the nucleus: hypocotyl and root cells, ACC 50 μM or MG132 50 μM, absence of ethylene for MG132.
Procedure: Transgenic seedlings that expressed a functional EIN3-GFP fusion protein were mounted on glass slides using PBS as a mounting medium. All images were collected on a fluorescence microscope (Olympus BX60) and the color of the images was artificially added in Photoshop 5.0 (Adobe Systems). For the time course experiment, after the first cell image was taken, 50 μM of ACC or MG132 was applied to the slide and the same cell was followed for 4 hr.
The subject of test [3] is EIN3 protein. Nature of the test: EIN3 protein immunoblot, Arabidopsis suspension cell cultures. Type of test: cell-based. The note with it: suspension cells; MG132 50 μM (after 30 min), MG115 50 μM, Pefabloc SC 100 μM. How it is done:
as §1

The subject of test [4] is transgenically overexpressed EIN3 protein. It counts as in vivo, Arabidopsis. The note with it: for abundance of transgenically overexpressed EIN3 protein: EIN3ox seedlings grown in air, MG132 50 μM, MG115 50 μM, Pefabloc SC 100 μM, 4 hr. On the procedure: as §1
The next test deals with EBF1 gene. Particulars: in vivo. On the procedure:
(§2) (A) Alignment of EBF1 (SEQ ID NO: 2) and EBF2 (SEQ ID NO: 4) amino acid sequences generated with ClustalW program. Identical amino acid residues in the two proteins are highlighted with black boxes. […] (B) Alignment of F-box motif sequences. […] Identities and similarities among the different proteins are highlighted by black and gray, respectively. Consensus residues are denoted by asterisks. […] Etiolated wild-type seedlings were treated with air (air) or ethylene (C2H4) for 4 hr before RNA was extracted for analysis. Each treatment was performed in replicate. The means of normalized intensity were used to indicate relative expression levels.

Another test has as its system EBF2 gene. The note with it: in vivo. How it is done: as §2
In test [5] the test system is EIN3-GFP fusion protein. Particulars: immunoblot, ethylene treatment.
Procedure: Protein samples were prepared by homogenizing the powdered tissues in 2×SDS-PAGE sample buffer and boiling the homogenate for 5 min. After centrifugation, the protein extracts were fractionated by 4-12% gradient Tris-Glycine Novex precast gels (Invitrogen), blotted onto a nitrocellulose filter. The blot was probed first with anti-EIN3 antibody, and was subsequently stripped with 0.2 N glycine (pH 2.5) for 3 times and re-probed with either anti-CRY1 antibody (Lin et al., Proc Natl Acad Sci 92, 8423-8427, 1995) or anti-SUB1 antibody (Guo et al., Science 291, 487-490, 2001)
The triple response phenotype was scored in T2 seedlings originated from individual Kanamycin-resistant T1 plants. Transgenic seedlings that expressed a functional EIN3-GFP fusion protein were mounted on glass slides using PBS as a mounting medium. […] For the time course experiment, after the first cell image was taken, 50 μM of ACC or MG132 was applied to the slide and the same cell was followed for 4 hr.

Structures are written as SMILES. Where a SMILES comes first, the peptide text is derived from it. [ ]: non-standard residue; d: D form. The star is where a group is joined. Nva = CCC[C@H](N)C(=O)O; Cbz = O=C(OCc1ccccc1)*

We go through six molecules from US7902422B2 (priority 2004, dated 2011).

For `NC1(C(=O)O)CC1` [ACC, aminocyclopropane-1-carboxylic acid], in the test on EIN3 protein [1] (wild-type seedlings on medium with high concentrations of ACC (10 and 50 μM), 3 days), the “levels of EIN3 protein” value is given as “dramatically elevated”. Moreover, the “time of ACC treatment after which EIN3-GFP accumulated in the nucleus” value in the test on EIN3-GFP fusion protein [2] (50 μM ACC, time course, same cell followed for 4 hr) amounted to 1 h. In addition, the “abundance of EIN3-GFP in the nucleus” value in the test on EIN3-GFP fusion protein [2] is listed as “substantially enhanced”.

As to `CCC[C@@H](C=O)NC(=O)[C@H](CC(C)C)NC(=O)[C@H](CC(C)C)NC(=O)OCc1ccccc1` [MG115] (Cbz-Leu-Leu-[Nva]-aldehyde), the “levels of EIN3 protein (EIN3 abundance)” value with EIN3 protein [3] was “enhanced EIN3 abundance”. The “abundance of transgenically overexpressed EIN3 protein” value in test [4] was “similarly induced”.

For the molecule `CC(C)C[C@@H](C=O)NC(=O)[C@H](CC(C)C)NC(=O)[C@H](CC(C)C)NC(=O)OCc1ccccc1` [MG132] (Cbz-Leu-Leu-Leu-aldehyde), the “levels of EIN3 protein (EIN3 abundance)” value in the test on EIN3 protein [3] is “markedly increased”. In test [4], the “abundance of transgenically overexpressed EIN3 protein” value is on record as “similarly induced”. The “abundance of EIN3-GFP in the nucleus” value with EIN3-GFP fusion protein [2] was “rapid nuclear accumulation”.

As to `Cl.NCCc1ccc(S(=O)(=O)F)cc1` [Pefabloc], the “levels of EIN3 protein (EIN3 abundance)” value in the test on EIN3 protein [3] is given as “no effect”. For the same molecule, in test [4], the “abundance of transgenically overexpressed EIN3 protein” value is “not”.

Turning to `C=C` [ethylene, Ethylene], the “levels of EIN3 protein with de novo translation blocked” value with EIN3 protein [1] (ethylene-pretreated (2 hr) wild-type seedlings, 100 μM cycloheximide, kept in ethylene) is “remained constitutively high”. The “level of EIN3 protein” value with EIN3 protein [1] (wild-type plants, ethylene gas 10 ppm, after 1 hr) is recorded as “markedly increased”. The “levels of transgenically overexpressed EIN3 protein” value in test [4] (EIN3ox plants, ethylene gas 10 ppm) is “up-regulated”. In addition, in the test on EBF1 gene, the “RNA level of EBF1 gene” value is recorded as “induced”. In the test on EBF2 gene, the “RNA level of EBF2 gene” value is “induced”. Also, the “level of EIN3-GFP fusion protein” value with EIN3-GFP fusion protein [5] is “dramatically increased”.

On to `O=[N+]([O-])[O-].[Ag+]` [silver ion, AgNO3], for which the “ethylene-induced EIN3 accumulation” value in the test on EIN3 protein [1] (wild-type seedlings on MS medium with 100 μM AgNO3 for 3 days, ethylene 4 hr) was “no longer induced by ethylene”.
